Values quoted from earlier work in US10513689B2, “Culture media for multipotent stem cells” (Hope Biosciences LLC, priority 2016, dated 2019).

Test system: MSCs
Details: Tamama et al., 2010

Substance: EGF: Epidermal growth factor, mitogen of MSCs
- increase in the number of colony-forming units: 25%
